Measurements taken from patent publication US8563516B2, “Foxp3 peptide vaccine” (OncoTherapy Science, Inc., priority 2007, dated 2013).
“Also recorded” adds a separate entry of the source. Ends that are not written are not given here.

Tests used:
[1] = test system: peptide-pulsed A24LCL cells or T2 cells; experiment: In vitro CTL induction by peptide-loaded dendritic cells (summary statements); type: cell-based, human; conditions: for specific CTL activity: against peptide pulsed target cells; for establishment of CTLs: in vitro stimulation of T-cells by DCs loaded with peptide
Text: Confirmation of CTL inducibility can be accomplished by inducing antigen-presenting cells carrying human MHC antigens (for example, B-lymphocytes, macrophages, and dendritic cells), or more specifically dendritic cells derived from human peripheral blood mononuclear leukocytes, and after stimulation with the peptides, mixing with CD8-positive cells, and then measuring the IFN-gamma produced and released by CTL against the target cells. As the reaction system, transgenic animals that have been produced to express a human HLA antigen (for example, those described in BenMohamed L, Krishnan R, Longmate J, Auge C, Low L, Primus J, Diamond D J, Hum Immunol 61(8): 764-79, 2000 August, Related Articles, Books, Linkout Induction of CTL response by a minimal epitope vaccine in HLA A*0201/DR1 transgenic mice: dependence on HLA class II restricted T(H) response) can be used. For example, the target cells can be radiolabeled with ^51Cr and such, and cytotoxic activity can be calculated from radioactivity released from the target cells. Alternatively, it can be examined by measuring IFN-gamma produced and released by CTL in the presence of antigen-presenting cells that carry immobilized peptides, and visualizing the inhibition zone on the media using anti-IFN-gamma monoclonal antibodies.
(§1) Monocyte-derived dendritic cells (DCs) were used as antigen-presenting cells (APCs) to induce CTL responses against peptides presented on HLA. DCs were generated in vitro as described elsewhere (Horiguchi S. et al. Cancer Res. 59:2950-6). Specifically, peripheral blood mononuclear cells (PBMCs) isolated from normal volunteer (HLA-A*2402 and/or HLA-A*0201) with Ficoll-Plaque (Pharmacia) solution were separated by adherence to plastic tissue culture dish (Becton Dickinson) so as to enrich them for the monocyte fraction. The monocyte-enriched population was cultured in the presence of 1000 U/ml of GM-CSF (R&D System) and 1000 U/ml of IL-4 (R&D System) in AIM-V medium (Invitrogen) containing 2% heat-inactivated autologous serum (AS). After 7 days in the culture, the cytokine-generated DCs were pulsed with 20 mcg/ml of the synthesized peptides in the presence of 3 mcg/ml of beta2-microglobulin for 4 hrs at 20 degrees C. in AIM-V medium. These peptide-pulsed DCs were then inactivated with mitomycin C (MMC) (30 mcg/ml for 30 mins) and mixed at a 1:20 ratio with autologous CD8+ T cells, obtained by positive selection with CD8 Positive Isolation Kit (Dynal). These cultures were set up in 48-well plates (Corning); each well contained 1.5×10^4 peptide-pulsed DCs, 3×10^5 CD8+ T cells and 10 ng/ml of IL-7 (R&D System) in 0.5 ml of AIM-V/2% AS. Three days later, these cultures were supplemented with IL-2 (CHIRON) to a final concentration of 20 IU/ml. On day 7 and 14, the T cells were further restimulated with the peptide-pulsed autologous DCs. The DCs were prepared each time through the same procedure described above. CTL activity was tested against peptide-pulsed A24LCL cells or T2 cells after the 3rd round of peptide stimulation on day 21.
(§2) To examine the specific CTL activity, IFN-gamma ELISPOT assay and IFN-gamma ELISA were performed. Briefly, peptide-pulsed A24-LCL, T2 cell (1×10^4/well) or the cells endogenously expressing Foxp3 and HLA molecule was prepared as a stimulator cells. Cultured CTL lines in 48 wells were used as a responder cells. IFN-gamma ELISPOT assay and IFN-gamma ELISA were performed under manufacture procedure.

[2] = test system: peptide-pulsed T2 cells; experiment: IFN-gamma ELISPOT on CTLs induced with HLA-A0201 restricted Foxp3 peptides; type: cell-based, human; conditions: FIG. 2A/2B/2C
Text: as §1, §2
Resulting CTLs showing detectable specific CTL activity were shown in FIG. 2A, FIG. 2B and FIG. 2C when performed by IFN-gamma ELISPOT assay.

[3] = test system: peptide-pulsed T2 cells; experiment: IFN-gamma ELISA on expanded CTL lines, HLA-A02 peptides; type: cell-based, human; conditions: expanded cells of positive wells, FIG. 3A-D, 3F
Protocol: (§3) CTLs were expanded in culture using a similar method as reported by Riddell, et al. (Walter et al., N Engl J Med 333(16): 1038-44, 1995; Riddell et al., Nat Med 2(2): 216-23, 1996 February). A total of 5×10^4 CTLs were resuspended in 25 ml of AIM-V/5% AS with 2 kinds of human B-lymphoblastoid cell lines, inactivated with MMC, in the presence of 40 ng/ml of anti-CD3 monoclonal antibody (Pharmingen). One day after initiating the cultures, 120 IU/ml of IL-2 were added to the cultures. The cultures were fed with fresh AIM-V/5% AS containing 30 IU/ml of IL-2 on days 5, 8 and 11.
as §2
(§4) These cells in the positive wells were expanded and performed IFN-gamma ELISA assay.

[4] = test system: peptide-pulsed A24LCL cells; experiment: IFN-gamma ELISA on expanded CTL lines, HLA-A24 peptides; type: cell-based, human; conditions: expanded cells of positive wells, FIG. 3E, 3G
Protocol: as §3, §2, §4

[5] = test system: peptide-pulsed A24LCL cells; experiment: IFN-gamma ELISPOT on CTLs induced with HLA-A2402 restricted Foxp3 peptides; type: cell-based, human; conditions: FIG. 1A/1B
Text: as §1, §2
CTLs for the peptides derived from Foxp3 protein were generated according to the method described in the “Materials and Methods”, supra.

[6] = test system: BALB/c mice; experiment: Immunogenicity of epitope peptides in BALB/c mice (IFN-gamma ELISPOT on splenocytes); type: in vivo
Protocol: IFA-conjugated peptide or IFA only were injected s.c. into BALB/c mice on day 0 and 7. On day 14, splenocytes of vaccinated mice were harvested and used as responder cells. 1×10^4 RLmale1 cells pulsed corresponding peptide (solid square), or no peptide (open square) were used as stimulator cells for IFN-gamma ELISPOT assay. Vaccination using Foxp3-252_h (A) and Foxp3-252_m (B) were performed into five mice (M1-M5) and IFA without any peptide injection were performed into three mice (N1-N3) as control in each assay.
For priming the peptide-specific CTLs, immunization was given using 100 mcl vaccine mixture, which contains 50 mcl HLA-A24 restricted peptide and 50 mcl IFA per mouse. The vaccine was injected s.c. into the right flank of mice for the first immunization on day 0 and in the left flank for the second on the day 7. On day 14, splenocytes from vaccinated mice were used as the responder cells, and RLmale1 cells pulsed with or without peptides were used as the stimulator cells for IFN-gamma ELISPOT assay.
To evaluate the immunogenicity of Foxp3-9-252 peptide for BALB/c mice, immunization with human Foxp3-9-252 peptide (Foxp3-252_h; KLSAMQAHL)(SEQ ID NO: 17) and mouse Foxp3-9-252 peptide (Foxp3-252_m; KLGAMQAHL) (SEQ ID NO: 89) were performed, respectively. After second injection of peptide, peptide specific CTL activity was determined by IFN-gamma ELISPOT assay (FIG. 5).

[7] = test system: 4T1 breast cancer cells; experiment: In vivo antitumor effects of vaccination, 4T1 tumor; parameters: species or system BALB/c mice; conditions: 4T1 s.c. day 0, vaccination day 3 and 10, compared with control mice, FIG. 6
Protocol: 1×10^5 4T1 breast cancer cell lines were injected into BALB/c mice on day 0. IFA-conjugated with Foxp3-252_h (-open circle-), Foxp3-252_m (-solid square-), no peptide (-solid triangle-) was injected on day 3 and 10. As control of normal tumor growth, non-vaccinated mice (-x-) were also prepared in this assay.
4T1 cells (1×10^5 per mouse) were injected s.c. into the right flank of BALB/c mice on day 0. Vaccination was done on days 3 and 10 using hFoxp3-252 (KLSAMQAHL: SEQ ID NO: 17) or mFoxp3-252 (KLGAMQAHL: SEQ ID NO: […]) IFA-conjugated peptides.
To examine the antitumor effects with peptide vaccination targeted Foxp3, in vivo therapeutic setting was attempted by using 4T1 tumor cells and BALB/c mice. The 4T1 breast cancer cells were injected s.c. into BALB/c mice on day 0, and then vaccination was done on these mice 3 and 10 days after the tumor challenge.

[8] = test system: 293T that transfected both Foxp3 and HLA-A02; experiment: Specific CTL activity against target cells expressing Foxp3 and HLA-A02; type: cell-based, human
Protocol: as §2
The established CTL clone raised against these peptides were examined for their ability to recognize the target cells endogenously expressing Foxp3 and HLA-A*24 or 02. Specific CTL activity against 293T transfected both full length of Foxp3 gene and HLA-A*24 or 02 molecule, which is specific model for the target cells endogenously express Foxp3 and HLA-A*24 or 02, was tested using the CTL lines raised by Foxp3-A02-9-390 (SEQ ID NO: 15) and Foxp3-A02-9-252 (SEQ ID NO: 17) as effector cells. […] Furthermore, these peptides were epitope peptides, which can utilize vaccine targeting Foxp3 expressed T-regs.

## ALLQDRPHFM (peptide vaccine) [SEQ ID NO 27]
[1]
  specific CTL activity: significant and specific CTL activity
  establishment of CTLs: CTLs were successfully established
[2]
  IFN-gamma production of CTLs stimulated with peptide, compared with the control: potent IFN-gamma production
[3]
  IFN-gamma production of CTL lines stimulated with peptide, compared with the control: potent IFN-gamma production

## GPLPhLQALL (GPLPHLQALL; not fully specified (residue 5); printed as GPLPhLQALL) [SEQ ID NO 67]
[1]
  specific CTL activity: significant and specific CTL activity
  establishment of CTLs: CTLs were successfully established
[4]
  IFN-gamma production of CTL lines stimulated with peptide, compared with the control: potent IFN-gamma production
[5]
  IFN-gamma production of CTLs stimulated with peptide, compared with the control: potent IFN-gamma production

## KLGAMQAHL (peptide vaccine) [SEQ ID NO 88, mouse Foxp3-9-252 peptide]
[6]; IFA-conjugated peptide s.c. day 0 and 7, splenocytes day 14, RLmale1 stimulator cells, FIG. 5
  mice with peptide specific CTL response: one of five
[6]; vaccination of BALB/c mice, discussion
  induction of epitope specific CTLs in vivo: could induce epitope specific CTLs in vivo
[7]; listed as Foxp3-252_m
  tumor growth / antitumor effect: tumor growth apparently reduced; also recorded: Significant difference of tumor growth suppression
[7]; listed as mFoxp3-252
  tumor growth / antitumor effect: obviously anti-tumor effects

## SLHKCFVRV (peptide vaccine) [SEQ ID NO 15]
[1]
  specific CTL activity: significant and specific CTL activity
  establishment of CTLs: CTLs were successfully established
[2]
  IFN-gamma production of CTLs stimulated with peptide, compared with the control: potent IFN-gamma production
[8]; against 293T transfected with both Foxp3 and HLA-A02, FIG. 4A/4B
  specific CTL activity of CTL lines raised by peptide: high specific CTL activity
[8]; controls of FIG. 4A/4B
  specific CTL activity against controls: did not show significant specific CTL activity
[3]
  IFN-gamma production of CTL lines stimulated with peptide, compared with the control: potent IFN-gamma production

## SLNPmPPSQL (chain 1 SLNPMPPSQL; chain 2 SLNPMPPSQL; not fully specified (some residues)) [SEQ ID NO 74]
[1]
  specific CTL activity: significant and specific CTL activity
  establishment of CTLs: CTLs were successfully established
[4]
  IFN-gamma production of CTL lines stimulated with peptide, compared with the control: potent IFN-gamma production
[5]
  IFN-gamma production of CTLs stimulated with peptide, compared with the control: potent IFN-gamma production
